Measured values published in patent US20240140931A1, “TRICYCLIC COMPOUNDS AND USES THEREOF” (HUTCHMED LIMITED, priority 2021, published 2024).

Tests used:
[1] = molecular target: Human full-length SHP2 recombinant protein (Homo sapiens (Human), UniProt Q06124); test: Assay of full-length SHP2 phosphatase activity; assay type: biochemical; details: DiFMUP substrate, with activating peptide
How it was run: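 Readout: DiFMUP hydrolysis fluorescence (355/460 nm) after 60 min at 25 °C, following 30 min RT preincubation of compound with peptide-activated full-length human SHP2. Controls were 1% DMSO with or without enzyme; IC50 by four-parameter logistic fit.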

[2] = test system: pERK1/2 (Thr202/Tyr204) in Miapaca2 cells; test: Assay of intracellular pERK1/2 (Thr202/Tyr204) phosphorylation; assay type: cell-based; details: pERK1/2 (Thr202/Tyr204) HTRF
How it was run: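 HTRF read-out (665/615 nm) of phospho-ERK1/2 Thr202/Tyr204 in lysates from Miapaca2 cells exposed for 2 h to 3-fold compound dilutions at 0.5% final DMSO. Controls: lysis buffer without cells and DMSO-treated cells; IC50 from four-parameter logistic fit.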

Miapaca2 3D spheroids = test: Assay of cell proliferation on Miapaca2 3D spheroids; assay type: cell-based; details: CellTiter-Glo 3D, 5 days treatment
Experimental: Example 4 Assay of Cell Proliferation on Miapaca2 3D Spheroids
1. Reagents and Materials • CellTiter-Glo® 3D Cell Viability Assay Kit: Promega, Cat #G9683; • CellCarrier Spheroid ULA 96-well plate: Corning, Cat #4515; • Instrument: Envision, Perkinelmer; • Cell line: Miapaca2, ATCC, Cat #CRL-1420.
2. Preparation of Reaction Solutions • The test compound was dissolved in DMSO and diluted with DMSO to 3000.0 μM, and the compound was further 3-fold diluted with DMSO to: 1000.0, 333.3, 111.1, 37.0, 12.3, 4.1, and 1.4 μM. Then 2 μL of the compound at different dilution concentrations was added to 198 μL of a 1640 medium to prepare a 10× test compound, wherein DMSO was at the concentration of 1% (DMSO was at the final concentration of 0.1%).
3. Experimental Methods • Day0: Digest cells and count cell numbers. Miapaca2 cells were inoculated into a spheroid ULA 96-well plate at a density of 300 cells/well at 100 μL/well and cultured in a cell incubator at 5% CO2 and 37° C. • Day2: The cell spheroids formed at day2. Add 10 μL of 10× test compounds to the 96-well plate. To the cell positive control well was added 10 μL of 1% DMSO 1640 medium. Incubate the cell spheroids in a cell incubator at 5% CO2 and 37° C. for additional 5 days. • Cell viability assay: Add 50 μL of CellTiter-Glo reagent to each well, place the plate in a microplate shaker, and lysis under shaking at 900 rpm at room temperature for 5 minutes. Then incubate the plate at room temperature in the dark for 30 minutes. • The luminescene of each well was detected on Envision2104.
Cell Survial %=(Lum(d7 treatment)−Lum(d2 cell))/(Lum(d7 cell)−Lum(d2 cell))×100
Wherein: • Lum(d7 treatment) refers to the luminescene of the test compound treated cells on day7; • Lum(d2 cell) refers to the luminescene of the 0.1% DMSO treated Miapaca2 cells on day2; • Lum(d7 cell) refers to the luminescene of the 0.1% DMSO treated Miapaca2 cells on day7. • IC50 values were calculated following formula 205: y=A+((B−A)/(1+((C/X)^D))), by using the XL-Fit 5.0 software.

[3] = Homo sapiens, MIA PaCa-2, 120 h

Chain of Human full-length SHP2 recombinant protein (Q06124 whole entry): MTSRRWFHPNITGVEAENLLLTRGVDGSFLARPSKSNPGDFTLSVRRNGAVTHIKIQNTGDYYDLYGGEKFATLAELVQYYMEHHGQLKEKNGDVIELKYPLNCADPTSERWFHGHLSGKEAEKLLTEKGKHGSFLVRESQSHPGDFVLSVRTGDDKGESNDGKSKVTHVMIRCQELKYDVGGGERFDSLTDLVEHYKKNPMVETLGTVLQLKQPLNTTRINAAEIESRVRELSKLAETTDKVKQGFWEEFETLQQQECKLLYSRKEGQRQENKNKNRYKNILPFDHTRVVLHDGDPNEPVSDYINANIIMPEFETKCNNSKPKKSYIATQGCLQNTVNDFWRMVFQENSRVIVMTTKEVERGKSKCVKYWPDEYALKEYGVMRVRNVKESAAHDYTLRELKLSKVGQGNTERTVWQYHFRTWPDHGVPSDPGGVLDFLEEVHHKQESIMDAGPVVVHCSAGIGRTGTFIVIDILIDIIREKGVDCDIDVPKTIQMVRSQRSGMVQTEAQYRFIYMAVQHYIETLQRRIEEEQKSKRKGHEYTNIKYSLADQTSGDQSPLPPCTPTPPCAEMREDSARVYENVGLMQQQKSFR

Compound | IC50 [1] [nM] | IC50 ([2]; Homo sapiens, MIA PaCa-2, 2 h) [nM] | IC50 (Miapaca2 3D spheroids; [3]) [nM] | IC50 ([2]; 2 hours) [nM] | IC50 (Miapaca2 3D spheroids) [nM]
Cc1nc(Sc2ccnc(N)c2Cl)cnc1N1CCC2(CC1)Cc1ccc(C#CC(N)=O)cc1[C@H]2N [Compound 271] | 1 | 4 | 2 |  | 
CNC(=O)C#Cc1ccc2c(c1)[C@@H](N)C1(CCN(c3ncc(Sc4ccnc(N)c4Cl)nn3)CC1)C2 [Compound 250] | 1 | 72 | 14 |  | 
CCNC(=O)C#Cc1ccc2c(c1)[C@@H](N)C1(CCN(c3cnc(Sc4ccnc(N)c4Cl)cn3)CC1)C2 [Compound 155] | 1 | 2 | 0.9 |  | 
CNC(=O)C#Cc1ccc2c(c1)[C@@H](N)C1(CCN(c3cnc(Sc4cccnc4C(F)(F)F)cn3)CC1)C2 [Compound 242] | 0.7 | 13 | 2 |  | 
COCC#Cc1ccc2c(c1)[C@@H](N)C1(CCN(c3ncc(Sc4ccnc(N)c4Cl)c4nncn34)CC1)C2 [Compound 147] | 3 | 10 | 48 |  | 
CNC(=O)C#Cc1ccc2c(c1)[C@@H](N)C1(CCN(c3cnc(Sc4cc(N)nc(Cl)c4Cl)cn3)CC1)C2 [Compound 254] | 3 | 11 | 10 |  | 
CNC(=O)C#Cc1ccc2c(c1)[C@@H](N)C1(CCN(c3cnc(Sc4ccnc(N)c4Cl)c(N)n3)CC1)C2 [Compound 229, (S)-3-(1-amino-1′-(6-amino-5-((2-amino-3-chloropyridin-4-yl)thio)pyrazin-2-yl)-1,3-dihydrospiro[indene-2,4′-piperidin]-6-yl)-N-methylpropiolamide] | 1 | 2 | 0.5 |  | 
CNC(=O)C#Cc1ccc2c(c1)[C@@H](N)C1(CCN(c3cnc(Sc4ccnc(N)c4Cl)cn3)CC1)O2 [Compound 292] | 0.9 | 6 | 1 |  | 
COC(=O)C#Cc1ccc2c(c1)[C@@H](N)C1(CCN(c3cnc(Sc4ccnc(N)c4Cl)cn3)CC1)C2 [Compound 300] | 1 | 13 | 16 |  | 
COc1nccc(Sc2nc(C)c(N3CCC4(CC3)Cc3ccc(C#CC(=O)N(C)C)cc3[C@H]4N)nc2N)c1Cl [Compound 204] | 6 | 54 | 121 |  | 
CCNC(=O)C#Cc1ccc2c(c1)[C@@H](N)C1(CCN(c3cnc(N4CCCc5ncccc54)nn3)CC1)C2 [Compound 244] | 11 | 139 | 41 |  | 
Cc1nc(Sc2ccnc(N)c2Cl)c(N)nc1N1CCC2(CC1)Cc1ccc(C#CC(N)=O)cc1[C@H]2N [Compound 276] | 2 | 4 | 3 |  | 
C#Cc1cc(F)c2c(c1)[C@@H](N)C1(CCN(c3ncc(Sc4ccnc(N)c4Cl)n4nccc34)CC1)C2 [Compound 176] | 38 | 41 | 97 |  | 
COCC#Cc1cc(F)c2c(c1)[C@@H](N)C1(CCN(c3ncc(Sc4ccnc(N)n4)c4nccn34)CC1)C2 [Compound 171] | 6 | 38 | 39 |  | 
C#Cc1ccc2c(c1)[C@@H](N)C1(CCN(c3cc(=O)n(-c4ccc(F)c(OC)c4Cl)c(C)n3)CC1)C2 (atropisomer, axis not shown) [Compound 161] | 1 |  |  | 13 | 8
CN(C)C(=O)C#Cc1ccc2c(c1)[C@@H](N)C1(CCN(c3cnc(Sc4ccnc(N)c4Cl)cn3)CC1)C2 [Compound 302] | 0.4 | 5 | 1 |  | 
CNC(=O)C#Cc1ccc2c(c1)[C@@H](N)C1(CCN(c3cnc(N4CCCc5ncccc54)cn3)CC1)C2 [Compound 251] | 1 | 24 | 29 |  | 
COCCNC(=O)C#Cc1ccc2c(c1)[C@@H](N)C1(CCN(c3cnc(Sc4ccnc(N)c4F)cn3)CC1)C2 [Compound 298] | 0.3 | 1 | 0.3 |  | 

Compound | IC50 [1] [nM] | IC50 ([2]; Homo sapiens, MIA PaCa-2, 2 h) [nM] | IC50 (Miapaca2 3D spheroids; [3]) [nM] | IC50 ([2]; 2 hours) [nM] | IC50 (Miapaca2 3D spheroids) [nM]
CNC(=O)C#Cc1ccc2c(c1)[C@@H](N)C1(CCN(c3cc(=O)n(-c4ccc(F)c(F)c4Cl)c(C)n3)CC1)C2 (atropisomer, axis not shown) [Compound 209] | 1 |  |  | 19 | 38
Nc1nc(N2CCC3(CC2)Cc2ccc(C#CC(=O)NC4CC4)cc2[C@H]3N)c(Cl)nc1Sc1ccnc(N)c1Cl [Compound 230] | 10 | 31 | 7.4 |  | 
CNC(=O)C#Cc1ccc2c(c1)[C@@H](N)C1(CCN(c3cc(=O)n(-c4ccc(F)c(OC)c4Cl)c(C)n3)CC1)C2 (atropisomer, axis not shown) [Compound 201] | 1 |  | 18 | 6 | 
C#Cc1cc(F)c2c(c1)[C@@H](N)C1(CCN(c3nc(C)n(-c4cccc(Cl)c4Cl)c(=O)c3C)CC1)C2 [Compound 168] | 10 | 34 | 77 |  | 
CNC(=O)C#Cc1ccc2c(c1)[C@@H](N)C1(CCN(c3nc(N)c(Sc4ccnc(N)c4Cl)nc3C)CC1)C2 [Compound 187] | 1 | 3 | 3 |  | 
CC#Cc1ccc2c(c1)[C@@H](N)C1(CCN(c3cc(=O)n(-c4cccc(OC)c4Cl)c(C)n3)CC1)C2 [Compound 206] | 3 | 69 | 78 |  | 
CNC(=O)C#Cc1ccc2c(c1)[C@@H](N)C1(CCN(c3nc(N)c(Sc4ccnc(N)c4Cl)nc3Cl)CC1)C2 [Compound 222, (S)-3-(1-amino-1′-(6-amino-5-((2-amino-3-chloropyridin-4-yl)thio)-3-chloropyrazin-2-yl)-1,3-dihydrospiro[indene-2,4′-piperidin]-6-yl)-N-methylpropiolamide] | 4 | 6 | 15 |  | 
CCNC(=O)C#Cc1ccc2c(c1)[C@@H](N)C1(CCN(c3cnc(Sc4c(F)cnc(N)c4Cl)cn3)CC1)C2 [Compound 269] | 0.9 | 7 | 3 |  | 
Nc1nccc(Sc2cnc(N3CCC4(CC3)Cc3ccc(C#CC(=O)NC5CC5)cc3[C@H]4N)cn2)c1Cl [Compound 296] | 0.3 | 2 | 0.7 |  | 
CNC(=O)C#Cc1ccc2c(c1)[C@@H](N)C1(CCN(c3nc(N)c(Sc4ccnc(C)c4Cl)nc3C)CC1)C2 [Compound 189] | 1 | 7 | 15 |  | 
CCNC(=O)C#Cc1ccc2c(c1)[C@@H](N)C1(CCN(c3cnc(Sc4cccnc4Cl)c(N)n3)CC1)C2 [Compound 238] | 1.3 | 4 | 1 |  | 
CCNC(=O)C#Cc1ccc2c(c1)[C@@H](N)C1(CCN(c3ncc(Sc4ccnc(N)c4Cl)nn3)CC1)C2 [Compound 249] | 1 | 31 | 19 |  | 
C#Cc1ccc2c(c1)[C@@H](N)C1(CCN(c3nc(C)n(-c4cccc(Cl)c4Cl)c(=O)c3F)CC1)C2 [Compound 165] | 6 | 39 | 71 |  | 
CNC(=O)C#Cc1ccc2c(c1)[C@@H](N)C1(CCN(c3ncc(Sc4ccnc(N)c4Cl)nc3C)CC1)C2 [Compound 232] | 2 | 8 | 0.9 |  | 
Cc1nc(Sc2ccnc(N)c2F)c(N)nc1N1CCC2(CC1)Cc1ccc(C#CC(N)=O)cc1[C@H]2N [Compound 274] | 1 | 6 | 3 |  | 
CNC(=O)C#Cc1ccc2c(c1)[C@@H](N)C1(CCN(c3cc(=O)n(-c4ccc(F)c(F)c4Cl)c(C)n3)CC1)C2 [Compound 202] | 1 |  | 46 | 40 | 
CNC(=O)C#Cc1ccc2c(c1)[C@@H](N)C1(CCN(c3nc(C)c(Sc4ccnc(N)c4Cl)nc3CO)CC1)C2 [Compound 199] | 1 | 5 | 12 |  | 
